Test results taken from ChEMBL document CHEMBL1155061, “Conjugates of gonadotropin releasing hormone (GnRH) with carminic acid: Synthesis, generation of reactive oxygen species (ROS) and biological evaluation” (Bioorg Med Chem, 2008).
The source made the active and inactive calls. The rule behind the calls is not given here.

Tests used:
[1] = Stimulation of ERK phosphorylation in alphaT3-1 cells; format: cell-based
[2] = tested on: Pituitary gland cell; assay: Effect on LH release in rat pituitary cells after 4 hrs; format: functional, cell-based

Compound	Activity [1]	Activity [2]
Cc1c(C(=O)NCCC(=O)NCCCC[C@@H](NC(=O)[C@H](Cc2ccc(O)cc2)NC(=O)[C@H](CO)NC(=O)[C@H](Cc2c[nH]c3ccccc23)NC(=O)[C@H](Cc2cnc[nH]2)NC(=O)[C@@H]2CCC(=O)N2)C(=O)N[C@@H](CC(C)C)C(=O)N[C@@H](CCCNC(=N)N)C(=O)N2CCC[C@H]2C(=O)NCC(N)=O)c(O)cc2c1C(=O)c1c(O)c([C@H]3O[C@H](CO)[C@@H](O)[C@H](O)[C@H]3O)c(O)c(O)c1C2=O	Active	Active
CC(C)C[C@H](NC(=O)[C@@H](CCCCN)NC(=O)[C@H](Cc1ccc(O)cc1)NC(=O)[C@H](CO)NC(=O)[C@H](Cc1c[nH]c2ccccc12)NC(=O)[C@H](Cc1cnc[nH]1)NC(=O)[C@@H]1CCC(=O)N1)C(=O)N[C@@H](CCCNC(=N)N)C(=O)N1CCC[C@H]1C(=O)NCC(N)=O	Active	Active
